According to article PMC9177597, “Structural basis of substrate recognition and translocation by human very long-chain fatty acid transporter ABCD1” (Nature Communications, 2022):
Where a chain is given by its changes, count along the chain named.

Legend:
Assay in all cases: substrate-stimulated ATPase assay (colorimetric Pi release)
Assay type in all cases: biochemical
chABCD1 (chimeric ABCD1) [1] = biological target: T1, chABCD1 (chimeric ABCD1) (Homo sapiens, UniProt P33897)
T1 construct: single polypeptide: N-terminal FLAG tag, PMP-4 residues 1-65 replacing human ABCD1 residues 1-63, then human ABCD1 64-745; HEK293F; homodimer; LMNG/CHS for assays, digitonin for cryo-EM; with PMP-4 (peroxisomal membrane protein related, ABCD1 homolog, Caenorhabditis elegans; N-terminal segment fused to the target chain)
T1 sequence (P33897 64-745): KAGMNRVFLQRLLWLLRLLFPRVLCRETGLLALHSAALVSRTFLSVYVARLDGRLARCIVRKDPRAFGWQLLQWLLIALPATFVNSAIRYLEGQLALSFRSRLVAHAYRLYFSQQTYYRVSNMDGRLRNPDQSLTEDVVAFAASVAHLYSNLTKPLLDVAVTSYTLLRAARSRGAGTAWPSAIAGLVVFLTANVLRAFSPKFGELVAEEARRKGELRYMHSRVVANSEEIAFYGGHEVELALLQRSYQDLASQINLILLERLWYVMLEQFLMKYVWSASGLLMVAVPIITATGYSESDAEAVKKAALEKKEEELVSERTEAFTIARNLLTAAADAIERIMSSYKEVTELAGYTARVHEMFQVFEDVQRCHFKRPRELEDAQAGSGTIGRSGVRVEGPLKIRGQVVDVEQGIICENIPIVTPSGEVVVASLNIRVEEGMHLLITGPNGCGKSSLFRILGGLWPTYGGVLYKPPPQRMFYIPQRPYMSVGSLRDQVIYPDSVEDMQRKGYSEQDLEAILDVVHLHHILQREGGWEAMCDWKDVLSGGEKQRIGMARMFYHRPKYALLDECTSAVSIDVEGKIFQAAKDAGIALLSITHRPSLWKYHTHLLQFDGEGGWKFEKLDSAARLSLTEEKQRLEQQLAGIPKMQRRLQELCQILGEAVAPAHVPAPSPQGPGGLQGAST

chABCD1 (chimeric ABCD1) [2] = biological target: T2, chABCD1 (chimeric ABCD1) (Homo sapiens, UniProt P33897, K217A); details: 5 μM C22:0-CoA, 2 mM ATP, 2 mM MgCl2, LMNG + CHS, pH 7.5, 37 °C
T2 construct: single polypeptide: N-terminal FLAG tag, PMP-4 residues 1-65 replacing human ABCD1 residues 1-63, then human ABCD1 64-745; HEK293F; homodimer; LMNG/CHS for assays, digitonin for cryo-EM; with PMP-4 (peroxisomal membrane protein related, ABCD1 homolog, Caenorhabditis elegans; N-terminal segment fused to the target chain)
T2 sequence (P33897 64-745 K217A): T1 sequence (P33897 64-745) with K154A

chABCD1 (chimeric ABCD1) [3] = biological target: T3, chABCD1 (chimeric ABCD1) (Homo sapiens, UniProt P33897, DEL694-745)
T3 construct: single polypeptide: N-terminal FLAG tag, PMP-4 residues 1-65 replacing human ABCD1 residues 1-63, then human ABCD1 64-745; HEK293F; homodimer; LMNG/CHS for assays, digitonin for cryo-EM; with PMP-4 (peroxisomal membrane protein related, ABCD1 homolog, Caenorhabditis elegans; N-terminal segment fused to the target chain)
T3 sequence (P33897 64-693): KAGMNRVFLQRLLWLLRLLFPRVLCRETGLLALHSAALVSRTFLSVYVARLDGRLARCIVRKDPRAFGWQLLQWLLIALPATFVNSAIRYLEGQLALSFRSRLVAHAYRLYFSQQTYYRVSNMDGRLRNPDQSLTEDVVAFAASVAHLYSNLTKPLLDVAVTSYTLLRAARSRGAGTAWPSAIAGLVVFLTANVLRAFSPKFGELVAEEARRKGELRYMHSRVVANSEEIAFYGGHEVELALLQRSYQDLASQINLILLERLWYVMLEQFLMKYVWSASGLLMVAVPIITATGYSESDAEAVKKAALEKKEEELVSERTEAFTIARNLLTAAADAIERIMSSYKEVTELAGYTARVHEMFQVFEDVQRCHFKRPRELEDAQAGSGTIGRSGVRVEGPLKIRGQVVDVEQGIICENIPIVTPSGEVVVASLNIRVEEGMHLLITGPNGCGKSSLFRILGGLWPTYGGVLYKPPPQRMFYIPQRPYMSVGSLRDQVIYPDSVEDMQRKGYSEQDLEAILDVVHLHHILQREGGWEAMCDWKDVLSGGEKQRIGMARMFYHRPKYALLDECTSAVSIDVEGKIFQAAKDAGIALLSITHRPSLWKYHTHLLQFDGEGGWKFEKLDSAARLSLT

chABCD1 (chimeric ABCD1) [4] = biological target: T4, chABCD1 (chimeric ABCD1) (Homo sapiens, UniProt P33897, Y337F); details: 5 μM C22:0-CoA, 2 mM ATP, 2 mM MgCl2, LMNG + CHS, pH 7.5, 37 °C
T4 construct: single polypeptide: N-terminal FLAG tag, PMP-4 residues 1-65 replacing human ABCD1 residues 1-63, then human ABCD1 64-745; HEK293F; homodimer; LMNG/CHS for assays, digitonin for cryo-EM; with PMP-4 (peroxisomal membrane protein related, ABCD1 homolog, Caenorhabditis elegans; N-terminal segment fused to the target chain)
T4 sequence (P33897 64-745 Y337F): T1 sequence (P33897 64-745) with Y274F

EC50 (chABCD1 (chimeric ABCD1) [1]): ~2 µM
EC50 (chABCD1 (chimeric ABCD1) [3]): ~4 µM
Compound: CCCCCCCCCCCCCCCCCCCCCC(=O)SCCNC(=O)CCNC(=O)[C@H](O)C(C)(C)COP(=O)(O)OP(=O)(O)OC[C@H]1O[C@@H](n2cnc3c(N)ncnc32)[C@H](O)[C@@H]1OP(=O)(O)O [C22:0-CoA]
relative ATPase activity (chABCD1 (chimeric ABCD1) [2]): displayed significantly decreased substrate-simulated ATPase activity, compared to the wild-type
relative ATPase activity (chABCD1 (chimeric ABCD1) [4]): displayed significantly decreased substrate-simulated ATPase activity, compared to the wild-type
